Reference: PubChem BioAssay AID272 (DTP/NCI, 2004)
Values joined by “and” are separate entries in the source; they are usually repeats but may differ in a detail not shown here. Equal values may be shown once. Inconclusive results are not listed.

Test system: Lewis lung carcinoma i.m., BDF1 mice, T/C %
Assay: NCI In Vivo Anticancer Drug Screen. Data for tumor model Lewis Lung Carcinoma (intramuscular) in B6D2F1 (BDF1) mice
How it was run: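 Compound given to mice with transplantable tumours; survival or tumour size compared against the vehicle control group, reported as T divided by C.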

[1] = endpoint: median survival time, dose: 2.0 mg/kg/injection, schedule: Q01DX011 (ip), vehicle: saline, higher = longer survival

Cc1nc(N)c(C)c(C(=O)O)n1
T/C (endpoint: median survival time, dose: 4.0 mg/kg/injection, schedule: Q01DX009 (ip), vehicle: water, higher = longer survival): 110 % of control
T/C (endpoint: median survival time, dose: 8.0 mg/kg/injection, schedule: Q01DX009 (ip), vehicle: water, higher = longer survival): 105 % of control
T/C (endpoint: median survival time, dose: 64.0 mg/kg/injection, schedule: Q01DX009 (ip), vehicle: water, higher = longer survival): 92 % of control

N=C(N)SCc1c2ccccc2c(CSC(=N)N)c2ccccc12
T/C (endpoint: mean tumor weight, dose: 12.5 mg/kg/injection, schedule: Q01DX011 (ip), vehicle: saline, higher = larger tumour): 94 % of control
T/C (endpoint: mean tumor weight, dose: 25.0 mg/kg/injection, schedule: Q01DX011 (ip), vehicle: saline, higher = larger tumour): 84 % of control
T/C (endpoint: mean tumor weight, dose: 50.0 mg/kg/injection, schedule: Q01DX011 (ip), vehicle: saline, higher = larger tumour): 52 % of control
T/C (endpoint: median survival time, dose: 12.5 mg/kg/injection, schedule: Q01DX011 (ip), vehicle: saline, higher = longer survival): 110 % of control
T/C (endpoint: median survival time, dose: 25.0 mg/kg/injection, schedule: Q01DX011 (ip), vehicle: saline, higher = longer survival): 104 % of control

N[C@H](C(=O)O)[C@H]1ON=C(Cl)[C@@H]1O
T/C (endpoint: median survival time, dose: 8.0 mg/kg/injection, schedule: Q01DX013 (ip), vehicle: saline, higher = longer survival): 92 % of control
T/C (endpoint: median survival time, dose: 16.0 mg/kg/injection, schedule: Q01DX013 (ip), vehicle: saline, higher = longer survival): 107 % of control

CS(=O)(=O)OCCCNCCCOS(C)(=O)=O
T/C (endpoint: median survival time, dose: 10.0 mg/kg/injection, schedule: Q01DX011 (ip), vehicle: saline, higher = longer survival): 110 % of control and 113 % of control and 119 % of control
T/C (endpoint: median survival time, dose: 20.0 mg/kg/injection, schedule: Q01DX011 (ip), vehicle: saline, higher = longer survival): 109 % of control
T/C (endpoint: median survival time, dose: 40.0 mg/kg/injection, schedule: Q01DX011 (ip), vehicle: saline, higher = longer survival): 92 % of control and 107 % of control

O=NN(CCCl)C(=O)NC1CCCCC1
T/C (endpoint: mean tumor weight, dose: 23.0 mg/kg/injection, schedule: Q01DX001 (sc), vehicle: saline, higher = larger tumour): 61 % of control
T/C (endpoint: mean tumor weight, dose: 39.0 mg/kg/injection, schedule: Q01DX001 (sc), vehicle: saline, higher = larger tumour): 40 % of control
T/C (endpoint: mean tumor weight, dose: 65.0 mg/kg/injection, schedule: Q01DX001 (sc), vehicle: saline, higher = larger tumour): 30 % of control
T/C (endpoint: mean tumor weight, dose: 108.0 mg/kg/injection, schedule: Q01DX001 (sc), vehicle: saline, higher = larger tumour): 30 % of control
T/C (endpoint: median survival time, dose: 4.0 mg/kg/injection, schedule: Q01DX011 (ip), vehicle: saline + alcohol, higher = longer survival): 92 % of control
T/C (endpoint: median survival time, dose: 4.0 mg/kg/injection, schedule: Q01DX011 (ip), vehicle: saline with Tween-80, higher = longer survival): 105 % of control
T/C (endpoint: median survival time, dose: 8.0 mg/kg/injection, schedule: Q01DX011 (ip), vehicle: saline + alcohol, higher = longer survival): 92 % of control
T/C (endpoint: median survival time, dose: 14.0 mg/kg/injection, schedule: Q01DX001 (ip), vehicle: saline, higher = longer survival): 108 % of control
T/C (endpoint: median survival time, dose: 16.0 mg/kg/injection, schedule: Q01DX012 (ip), vehicle: saline + alcohol, higher = longer survival): 87 % of control
T/C (endpoint: median survival time, dose: 23.0 mg/kg/injection, schedule: Q01DX001 (ip), vehicle: saline, higher = longer survival): 121 % of control
T/C (endpoint: median survival time, dose: 23.0 mg/kg/injection, schedule: Q07DX003 (ip), vehicle: saline, higher = longer survival): 87 % of control
T/C (endpoint: median survival time, dose: 39.0 mg/kg/injection, schedule: Q01DX001 (sc), vehicle: saline, higher = longer survival): 185 % of control
T/C (endpoint: median survival time, dose: 39.0 mg/kg/injection, schedule: Q07DX003 (ip), vehicle: saline, higher = longer survival): 120 % of control
T/C (endpoint: median survival time, dose: 65.0 mg/kg/injection, schedule: Q01DX001 (ip), vehicle: saline, higher = longer survival): 34 % of control
T/C (endpoint: median survival time, dose: 65.0 mg/kg/injection, schedule: Q01DX001 (sc), vehicle: saline, higher = longer survival): 191 % of control
T/C (endpoint: median survival time, dose: 108.0 mg/kg/injection, schedule: Q01DX001 (ip), vehicle: saline, higher = longer survival): 25 % of control
T/C (endpoint: median survival time, dose: 108.0 mg/kg/injection, schedule: Q01DX001 (sc), vehicle: saline, higher = longer survival): 166 % of control

O=C1CCCN1.O=C1CCCN1.[Br][Co][Br]
T/C (endpoint: mean tumor weight, dose: 37.5 mg/kg/injection, schedule: Q01DX011 (ip), vehicle: water, higher = larger tumour): 84 % of control
T/C (endpoint: mean tumor weight, dose: 75.0 mg/kg/injection, schedule: Q01DX011 (ip), vehicle: water, higher = larger tumour): 65 % of control
T/C (endpoint: median survival time, dose: 37.5 mg/kg/injection, schedule: Q01DX011 (ip), vehicle: water, higher = longer survival): 95 % of control
T/C (endpoint: median survival time, dose: 75.0 mg/kg/injection, schedule: Q01DX011 (ip), vehicle: water, higher = longer survival): 110 % of control

COc1cc([C@@H]2c3cc4c(c(O)c3C[C@H]3COC(=O)[C@@H]32)OCO4)cc(OC)c1O
T/C (endpoint: mean tumor weight (est.), dose: 0.12 mg/kg/injection, schedule: Q01DX011 (ip), vehicle: saline, higher = larger tumour): 99 % of control
T/C (endpoint: mean tumor weight (est.), dose: 0.25 mg/kg/injection, schedule: Q01DX011 (ip), vehicle: saline, higher = larger tumour): 94 % of control
T/C (endpoint: mean tumor weight (est.), dose: 0.5 mg/kg/injection, schedule: Q01DX011 (ip), vehicle: saline, higher = larger tumour): 66 % of control

Cc1c(O)ccc(=O)n1O
T/C (endpoint: mean tumor weight (est.), dose: 27.5 mg/kg/injection, schedule: Q01DX011 (ip), vehicle: saline, higher = larger tumour): 99 % of control
T/C (endpoint: mean tumor weight (est.), dose: 55.0 mg/kg/injection, schedule: Q01DX011 (ip), vehicle: saline, higher = larger tumour): 121 % of control
T/C (endpoint: mean tumor weight (est.), dose: 110.0 mg/kg/injection, schedule: Q01DX011 (ip), vehicle: saline, higher = larger tumour): 84 % of control
T/C (endpoint: mean tumor weight (est.), dose: 220.0 mg/kg/injection, schedule: Q01DX011 (ip), vehicle: saline, higher = larger tumour): 79 % of control
T/C (endpoint: median survival time, dose: 27.5 mg/kg/injection, schedule: Q01DX011 (ip), vehicle: saline, higher = longer survival): 103 % of control
T/C (endpoint: median survival time, dose: 55.0 mg/kg/injection, schedule: Q01DX011 (ip), vehicle: saline, higher = longer survival): 96 % of control
T/C (endpoint: median survival time, dose: 110.0 mg/kg/injection, schedule: Q01DX011 (ip), vehicle: saline, higher = longer survival): 98 % of control
T/C (endpoint: median survival time, dose: 220.0 mg/kg/injection, schedule: Q01DX011 (ip), vehicle: saline, higher = longer survival): 121 % of control

CCn1cnc2c(=S)nc[nH]c21
T/C (endpoint: mean tumor weight (est.), dose: 25.0 mg/kg/injection, schedule: Q01DX011 (ip), vehicle: Klucel (hydroxypropylcellulose) (HPC), higher = larger tumour): 110 % of control
T/C (endpoint: mean tumor weight, dose: 1.56 mg/kg/injection, schedule: Q01DX011 (ip), vehicle: steriod suspending solution, higher = larger tumour): 81 % of control
T/C (endpoint: mean tumor weight, dose: 6.25 mg/kg/injection, schedule: Q01DX011 (ip), vehicle: steriod suspending solution, higher = larger tumour): 86 % of control
T/C (endpoint: median survival time, dose: 0.78 mg/kg/injection, schedule: Q01DX011 (ip), vehicle: Klucel (hydroxypropylcellulose) (HPC), higher = longer survival): 100 % of control
T/C (endpoint: median survival time, dose: 1.56 mg/kg/injection, schedule: Q01DX011 (ip), vehicle: Klucel (hydroxypropylcellulose) (HPC), higher = longer survival): 104 % of control
T/C (endpoint: median survival time, dose: 3.12 mg/kg/injection, schedule: Q01DX011 (ip), vehicle: Klucel (hydroxypropylcellulose) (HPC), higher = longer survival): 106 % of control
T/C (endpoint: median survival time, dose: 6.25 mg/kg/injection, schedule: Q01DX011 (ip), vehicle: Klucel (hydroxypropylcellulose) (HPC), higher = longer survival): 102 % of control and 108 % of control
T/C (endpoint: median survival time, dose: 12.5 mg/kg/injection, schedule: Q01DX011 (ip), vehicle: Klucel (hydroxypropylcellulose) (HPC), higher = longer survival): 106 % of control
T/C (endpoint: median survival time, dose: 25.0 mg/kg/injection, schedule: Q01DX011 (ip), vehicle: Klucel (hydroxypropylcellulose) (HPC), higher = longer survival): 95 % of control and 104 % of control

CC(C)(C)CC(C)(C)NCC(O)COc1ccc(C(C)(C)c2ccc(OCC(O)CNC(C)(C)CC(C)(C)C)cc2)cc1 (centres undefined)
T/C (endpoint: mean tumor weight (est.), dose: 3.12 mg/kg/injection, schedule: Q01DX011 (ip), vehicle: other, higher = larger tumour): 68 % of control

NC(Cc1ccc(N(CCCl)CCCl)cc1)C(=O)O (centres undefined)
T/C (endpoint: mean tumor weight, dose: 1.0 mg/kg/injection, schedule: Q01DX011 (ip), vehicle: Klucel (hydroxypropylcellulose) (HPC), higher = larger tumour): 76 % of control
T/C (endpoint: mean tumor weight, dose: 2.0 mg/kg/injection, schedule: Q01DX011 (ip), vehicle: Klucel (hydroxypropylcellulose) (HPC), higher = larger tumour): 99 % of control
T/C (endpoint: mean tumor weight, dose: 4.0 mg/kg/injection, schedule: Q01DX011 (ip), vehicle: Klucel (hydroxypropylcellulose) (HPC), higher = larger tumour): 52 % of control
T/C (endpoint: median survival time, dose: 1.0 mg/kg/injection, schedule: Q01DX011 (ip), vehicle: Klucel (hydroxypropylcellulose) (HPC), higher = longer survival): 110 % of control
T/C (endpoint: median survival time, dose: 2.0 mg/kg/injection, schedule: Q01DX011 (ip), vehicle: Klucel (hydroxypropylcellulose) (HPC), higher = longer survival): 102 % of control

O=[As]O
T/C (endpoint: mean tumor weight, dose: 2.0 mg/kg/injection, schedule: Q01DX011 (ip), vehicle: saline, higher = larger tumour): 64 % of control
T/C [1]: 110 % of control

CCCCCCCCCCCC[S+](C)C
T/C [1]: 100 % of control
T/C (endpoint: median survival time, dose: 4.0 mg/kg/injection, schedule: Q01DX011 (ip), vehicle: saline, higher = longer survival): 114 % of control
